Key:
[1] = tested on: HUVEC; assay: Inhibition of VEGF-stimulated angiogenesis in HUVECs at 1 uM relative to control; format: functional; details: Homo sapiens
[2] = tested on: HUVEC; assay: Inhibition of VEGF-stimulated angiogenesis in HUVECs; format: functional, cell-based; details: Homo sapiens

SMILES	inhibition at 1 µM [1] [%]	Activity [2]
Cc1cc(C)c(/C=C2\C(=O)Nc3ccccc32)[nH]1 [SEMAXANIB]	94	–
Cc1cc(C)c(/C=C2\C(=O)N(Cc3ccc([N+](=O)[O-])cc3)c3ccccc32)[nH]1	–	Dose-dependent effect
